Measured values as given in patent US20100256104A1, “NOVEL AMIDE COMPOUNDS” (ASTRAZENECA R&D, priority 2009, published 2010).
pIC50: −log10 of the molar value.

The molecules below were run against T1, recombinant human GR (Homo sapiens, UniProt P04150) (assay: Human Glucocorticoid Receptor (GR) Assay, fluorescence polarization competition with GS Red tracer). Details: 2 hours at room temperature, 100% control 10 μM Dexamethasone, XLfit model 205, read-out: Inhibition of GR binding, IC50.
T1 construct: purchased Panvera/Invitrogen P2812 (kit P2893)
T1 sequence (P04150 1-777): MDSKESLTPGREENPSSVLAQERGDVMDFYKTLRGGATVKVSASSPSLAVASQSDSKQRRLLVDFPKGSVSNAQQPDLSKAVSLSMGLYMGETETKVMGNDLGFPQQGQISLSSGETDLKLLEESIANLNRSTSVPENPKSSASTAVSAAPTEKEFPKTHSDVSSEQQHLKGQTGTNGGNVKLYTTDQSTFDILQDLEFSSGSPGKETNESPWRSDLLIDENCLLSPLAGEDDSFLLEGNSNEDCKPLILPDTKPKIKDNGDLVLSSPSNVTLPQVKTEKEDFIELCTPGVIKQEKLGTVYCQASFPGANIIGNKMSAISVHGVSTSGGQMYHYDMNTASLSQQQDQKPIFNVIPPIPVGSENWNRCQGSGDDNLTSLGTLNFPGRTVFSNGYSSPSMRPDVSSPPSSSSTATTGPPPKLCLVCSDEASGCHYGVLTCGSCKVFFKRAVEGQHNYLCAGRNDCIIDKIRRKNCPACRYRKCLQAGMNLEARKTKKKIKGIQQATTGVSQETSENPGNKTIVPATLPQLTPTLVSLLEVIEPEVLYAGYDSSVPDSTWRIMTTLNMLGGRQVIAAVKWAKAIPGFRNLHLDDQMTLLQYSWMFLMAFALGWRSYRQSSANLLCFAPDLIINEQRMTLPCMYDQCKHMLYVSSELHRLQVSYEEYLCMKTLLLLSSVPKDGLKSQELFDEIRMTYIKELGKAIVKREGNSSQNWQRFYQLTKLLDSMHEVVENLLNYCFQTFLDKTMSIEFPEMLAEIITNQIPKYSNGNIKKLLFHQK
How it was run: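 Fluorescence polarization competition: recombinant human GR with GS Red tracer, stabilizing peptide and DTT in potassium phosphate/sodium molybdate/EDTA buffer. 2 h in dark at room temperature, read at ex 530/em 590 nm. Controls: DMSO (0%) and 10 μM dexamethasone (100%).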

pIC50	Compound
8.42	CCC(=O)O[C@]1(C(=O)SCF)CC[C@H]2[C@@H]3CCC4=Cc5c(cnn5-c5cccc(C(=O)N(C)CC(N)=O)c5)C[C@]4(C)[C@@]3(F)[C@@H](O)C[C@@]21C [Example 34, (1R,3aS,3bS,10aS, 10bR,11S,12aS)-7-{3-[(2-amino-2-oxoethyl)(methyl)carbamoyl]phenyl}-10b-fluoro-1-{[(fluoromethyl)sulfanyl]carbonyl}-11-hydroxy-10a,12a-dimethyl-1,2,3,3a,3b,4,5,7,10, 10a,10b,11,12,12a-tetradecahydrocyclo-penta[5,6]naphtho [1,2-f]indazol-1-yl propanoate]
8.80	COCCNC(=O)c1cccc(-n2ncc3c2C=C2CC[C@@H]4[C@H]([C@@H](O)C[C@@]5(C)[C@H]4CC[C@]5(OC(=O)COC)C(=O)SCF)[C@@]2(C)C3)c1 [Example 3, (1R,3aS,3bS,10aR,10bS,11S,12aS)-1-{[(Fluoromethyl)sulfanyl]carbonyl}-11-hydroxy-7-{3-[(2-methoxyethyl)carbamoyl]phenyl}-10a,12a-dimethyl-1,2,3,3a,3b,4,5,7,10,10a,10b,11,12,12a-tetradecahydrocyclopenta[5,6]naphtho[1,2-f]indazol-1-yl methoxyacetate]
8.64	CNC(=O)c1cccc(-n2ncc3c2C=C2CC[C@H]4[C@@H]5C[C@@H](C)[C@](OC(=O)COC)(C(=O)SCF)[C@@]5(C)C[C@H](O)[C@]4(F)[C@@]2(C)C3)c1 [Example 28, 1R,2R,3aS,3bS, 10aS,10bR,11S,12aS)-10b-fluoro-1-{[(fluoromethyl)sulfanyl] carbonyl}-11-hydroxy-2,10a,12a-trimethyl-7[3-(methylcarbamoyl)phenyl]-1,2,3,3a,3b,4,5,7,10, 10a,10b,11,12,12a-tetradecahydrocyclo-penta[5,6]naphtho [1,2-f]indazol-1-yl methoxyacetate]
8.08	COCC(=O)O[C@]1(C(=O)SCF)CC[C@H]2[C@@H]3C[C@H](C)C4=Cc5c(cnn5-c5cccc(C(=O)NCC(N)=O)c5)C[C@]4(C)[C@H]3[C@@H](O)C[C@@]21C [Example 38, (1R,3aS,3bS,5S, 10aR,10bS,11S,12aS)-7-{3-[(2-amino-2-oxoethyl)carbamoyl]phenyl}-1-{[(fluoromethyl)sulfanyl]carbonyl}-11-hydroxy-5,10a, 12a-trimethyl-1,2,3,3a,3b,4,5,7,10, 10a,10b,11,12,12a-tetradecahydrocyclo-penta[5,6]naphtho [1,2-f]indazol-1-yl methoxyacetate]
9.04	CSCCNC(=O)c1cccc(-n2ncc3c2C=C2CC[C@@H]4[C@H]([C@@H](O)C[C@@]5(C)[C@H]4CC[C@]5(OC(=O)C4CC4)C(=O)SCC#N)[C@@]2(C)C3)c1 [Example 9, (1R,3aS,3bS,10aR,10bS,11S,12aS)-1-{[(Cyanomethyl)sulfanyl]carbonyl}-11-hydroxy-10a,12a-dimethyl-7-(3-{[2-(methylsulfanyl)ethyl]carbamoyl}phenyl)-1,2,3,3a,3b,4,5,7,10,10a,10b,11,12,12a-tetradecahydrocyclopenta[5,6]naphtho[1,2-f]indazol-1-yl cyclopropanecarboxylate]
8.92	CCC(=O)O[C@]1(C(=O)SCF)[C@H](C)C[C@H]2[C@@H]3CCC4=Cc5c(cnn5-c5cccc(C(=O)NCC(N)=O)c5)C[C@]4(C)[C@@]3(F)[C@@H](O)C[C@@]21C [Example 41, (1R,2R,3aS,3bS, 10aS,10bR,11S,12aS)-7-{3-[(2-amino-2-oxoethyl)carbamoyl]phenyl}-10b-fluoro-1-{[(fluoromethyl)sulfanyl]carbonyl}-11-hydroxy-2,10a,12a-trimethyl-1,2,3,3a,3b,4,5,7,10, 10a,10b,11,12,12a-tetradecahydrocyclo-penta[5,6]naphtho [1,2-f]indazol-1-yl propanoate]
8.74	COCC(=O)O[C@]1(C(=O)SCF)CC[C@H]2[C@@H]3CCC4=Cc5c(cnn5-c5cccc(C(=O)NCCSC)c5)C[C@]4(C)[C@H]3[C@@H](O)C[C@@]21C [Example 8, (1R,3aS,3bS,10aR,10bS,11S,12aS)-1-{[(Fluoromethyl)sulfanyl]carbonyl}-11-hydroxy-10a,12a-dimethyl-7-(3-{[2-(methylsulfanyl)ethyl]carbamoyl}phenyl)-1,2,3,3a,3b,4,5,7,10,10a,10b,11,12,12a-tetradecahydrocyclopenta[5,6]naphtho[1,2-f]indazol-1-yl methoxyacetate]
8.68	CCC(=O)O[C@]1(C(=O)SCF)CC[C@H]2[C@@H]3C[C@H](C)C4=Cc5c(cnn5-c5cccc(C(=O)N[C@H](C)C(N)=O)c5)C[C@]4(C)[C@H]3[C@@H](O)C[C@@]21C [Example 24, (1R,3aS,3bS,5S,10aR, 10bS,11S,12aS)-7-(3-{[(1R)-2-amino-1-methyl-2-oxoethyl]carbamoyl}phenyl)-1-{[(fluoromethyl)sulfanyl]carbonyl}-11-hydroxy-5,10a,12a-trimethyl-1,2,3,3a,3b,4,5,7,10, 10a,10b,11,12,12a-tetradecahydrocyclo-penta[5,6]naphtho [1,2-f]indazol-1-yl propanoate]
8.43	CCC(=O)O[C@]1(C(=O)SCC#N)CC[C@H]2[C@@H]3CCC4=Cc5c(cnn5-c5cccc(C(=O)NCC(N)=O)c5)C[C@]4(C)[C@H]3[C@@H](O)C[C@@]21C [Example 11, (1R,3aS,3bS,10aR,10bS,11S,12aS)-7-{3-[(2-Amino-2-oxoethyl)carbamoyl]phenyl}-1-{[(cyanomethyl)sulfanyl]carbonyl}-11-hydroxy-10a,12a-dimethyl-1,2,3,3a,3b,4,5,7,10,10a,10b,11,12,12a-tetradecahydrocyclopenta[5,6]naphtho[1,2-f]indazol-1-yl propanoate]
8.59	COCC(=O)O[C@]1(C(=O)SCF)[C@H](C)C[C@H]2[C@@H]3CCC4=Cc5c(cnn5-c5cccc(C(=O)N[C@H](C)C(N)=O)c5)C[C@]4(C)[C@@]3(F)[C@@H](O)C[C@@]21C [Example 29, (1R,2R,3aS,3bS, 10aS,10bR,11S,12aS)-7-(3-{[(1R)-2-amino-1-methyl-2-oxoethyl]carbamoyl}phenyl)-10b-fluoro-1-{[(fluoromethyl)-sulfanyl]carbonyl}-11-hydroxy-2,10a,12a-trimethyl-1,2,3,3a,3b,4,5,7,10, 10a,10b,11,12,12a-tetradecahydrocyclo-penta[5,6]naphtho [1,2-f]indazol-1-yl methoxyacetate]
8.85	CCC(=O)O[C@]1(C(=O)SCF)CC[C@H]2[C@@H]3CCC4=Cc5c(cnn5-c5cccc(C(=O)NCCSC)c5)C[C@]4(C)[C@H]3[C@@H](O)C[C@@]21C [Example 7, (1R,3aS,3bS,10aR,10bS,11S,12aS)-1-{[(Fluoromethyl)sulfanyl]carbonyl}-11-hydroxy-10a,12a-dimethyl-7-(3-{[2-(methylsulfanyl)ethyl]carbamoyl}phenyl)-1,2,3,3a,3b,4,5,7,10,10a,10b,11,12,12a-tetradecahydrocyclopenta[5,6]naphtho[1,2-f]indazol-1-yl propanoate]
8.52	COCC(=O)O[C@]1(C(=O)SCF)CC[C@H]2[C@@H]3CCC4=Cc5c(cnn5-c5cccc(C(=O)NCC(N)=O)c5)C[C@]4(C)[C@@]3(F)[C@@H](O)C[C@@]21C [Example 17, (1R,3aS,3bS,10aS,10bR,11S, 12aS)-7-{3-[(2-amino-2-oxoethyl)carbamoyl]-phenyl}-10b-fluoro-1-{[(fluoromethyl)sulfanyl]carbonyl}-11-hydroxy-10a,12a-dimethyl-1,2,3,3a,3b,4,5,7,10,10a,10b, 11,12,12a-tetradecahydro-cyclopenta[5,6]naphtho[1,2-f] indazol-1-yl methoxyacetate]
8.60	CCC(=O)O[C@]1(C(=O)SCF)CC[C@H]2[C@@H]3CCC4=Cc5c(cnn5-c5cccc(C(=O)N[C@H](C)C(N)=O)c5)C[C@]4(C)[C@@]3(F)[C@@H](O)C[C@@]21C [Example 32, (1R,3aS,3bS,10aS, 10bR,11S,12aS)-7-(3-{[(1R)-2-amino-1-methyl-2-oxoethyl]carbamoyl}phenyl)-10b-fluoro-1-{[(fluoromethyl)-sulfanyl]carbonyl}-11-hydroxy-10a,12a-dimethyl-1,2,3,3a,3b,4,5,7,10, 10a,10b,11,12,12a-tetradecahydrocyclo-penta[5,6]naphtho [1,2-f]indazol-1-yl propanoate]
